{"source": "patent US12594238B2", "about": "“Low hygroscopicity active powder compositions” (PHILIP MORRIS PRODUCTS S.A., priority 2020, dated 2026)", "origin": "cited, not measured here", "settings": "at 25° C."}
{"smiles": "OC[C@H]1O[C@H](O[C@H]2O[C@H](CO)[C@@H](O)[C@H](O)[C@H]2O)[C@H](O)[C@@H](O)[C@@H]1O", "note": "[trehalose]", "values": [{"measurement": "solubility", "result": 69, "unit": "g/100 ml water"}]}
